According to patent US10196360B2, “Crystal forms of bedaquiline fumarate and preparation methods therefor” (Zhejiang Hisun Pharmaceutical Co., Ltd., priority 2015, dated 2019):

How the values were obtained:
[1] = Particle size test (Mastersizer 2000); type: physicochemical; conditions: non-micronized, dispersant n-hexane, fumarate
Method: The test conditions for the particle size involved in the present invention are: Mastersizer model: Mastersizer 2000; operation method: 20 mg of bedaquiline fumarate sample is taken, about 5.0 ml dispersant (n-hexane) is added, the sample is subjected to ultrasonication for 1.0 min, is allowed to stabilize for 0.5-1.0 min and then is tested.
Test Procedure: the Hydro2000SM injector was connected and the Small Volume Sample Dispersion Unit tachometer was turned on, then a suitable amount of ethanol was added to the sample cell to clean the detection channel of the instrument. A suitable amount of n-hexane (dispersant) was added to the dispersion cup, a suitable amount of n-hexane (dispersant) was inlet into the instrument to exhaust gas, the stirring rate was set to 2950 rpm, optical correction and background measurement were carried out.
The suspension was added to the sample cell until the opacity was between 15% to 20%, the suspension was allowed to stabilize for 0.5-1.0 min, the measurement time was 4 sec, the test results was saved automatically by the system.

[2] = Solubility of the crystal forms in different solvents at 50° C.; type: physicochemical
[3] = N,N-dimethylformamide, fumarate

Row | Compound | D (0.1) [1] [um] | D (0.5) [1] [um] | D (0.9) [1] [um] | solubility ([2]; Methanol, fumarate) [mg/mL] | solubility [2, 3] [mg/mL] | solubility ([2]; Tetrahydrofuran, fumarate) [mg/mL] | solubility ([2]; Water)
1 | COc1nc2ccc(Br)cc2cc1[C@@H](c1ccccc1)[C@@](O)(CCN(C)C)c1cccc2ccccc12.O=C(O)/C=C/C(=O)O [Crystal form I, (1R,2S)-1-(6-bromo-2-methoxyquinolin-3-yl)-4-dimethylamino-1-phenyl-2-(1-naphthyl)-2-butanol fumarate] | 4.991 | 16.303 | 37.967 | 2000 | 1000 | 1000 | insoluble
2 | COc1nc2ccc(Br)cc2cc1[C@@H](c1ccccc1)[C@@](O)(CCN(C)C)c1cccc2ccccc12.O=C(O)/C=C/C(=O)O [Crystal form II, (1R,2S)-1-(6-bromo-2-methoxyquinolin-3-yl)-4-dimethylamino-1-phenyl-2-(1-naphthyl)-2-butanol fumarate] | 3.146 | 12.646 | 37.019 | 6000 | 2000 | 5000 | insoluble
3 | COc1nc2ccc(Br)cc2cc1[C@@H](c1ccccc1)[C@@](O)(CCN(C)C)c1cccc2ccccc12.O=C(O)/C=C/C(=O)O [Crystal form III, (1R,2S)-1-(6-bromo-2-methoxyquinolin-3-yl)-4-dimethylamino-1-phenyl-2-(1-naphthyl)-2-butanol fumarate] | 10.034 | 33.721 | 68.295 | 6000 | 3000 | 3000 | insoluble
